# Measurements as given in patent US11840546B2, “Imidazopyridazine compounds and uses thereof” (Incyte Corporation, priority 2020, dated 2023).
# pIC50: −log10 of the molar value.
# Key:
# [1] = biological target: ALK2 (aa 147-end) (Homo sapiens (Human), UniProt Q04771); assay: ALK2 HTRF Assay; format: biochemical; settings: HTRF enzymatic assay, 3 μM ATP, 0.5 nM ALK2, 25° C., 2 hr
# Procedure: ALK2 (aa 147-end) was obtained from BPS biosciences. The enzymatic assays were conducted in white 384-well polystyrene plates in a final volume of 8 μL. The inhibitors were serially diluted in DMSO and added to the plate wells prior to addition of the other reaction components. The assays were carried out at 25° C. in the assay buffer (50 mM HEPES, pH 7.0, 10% Glycerol, 0.01% Brij50, 10 mM MgCl2, 1 mM EGTA, 5 mM DTT, and 0.01% BSA), containing 50 nM LANCE Ultra ULight™-DNA Topoisomerase 2-alpha peptide (Perkin Elmer TRF0130), and 3 μM ATP. The final concentration of DMSO in the assay was […] and the enzyme concentration was 0.5 nM for ALK2. The reactions were allowed to proceed for 2 hr for ALK2 after which, the reaction was quenched by addition of EDTA at a final concentration of 20 mM along with 1.5 nM LANCE Ultra Europium-anti-phospho-DNA Topoisomerase 2-alpha (Thr1342) antibody (Perkin Elmer TRF0218). The reaction was incubated at 25° C. for 1 hr and read on a PHERAstar FS plate reader (BMG Labtech). IC50 determination was performed by fitting percent control activity versus the log of the inhibitor concentration using the IDBS XLFit and GraphPad Prism 5.0 software.
# [2] = tested on: ALK2 mutant DIPG cell; settings: ALK2 mutant DIPG cells; cited from earlier work
# Sequence of ALK2 (aa 147-end) (Q04771 147-509 limits assumed): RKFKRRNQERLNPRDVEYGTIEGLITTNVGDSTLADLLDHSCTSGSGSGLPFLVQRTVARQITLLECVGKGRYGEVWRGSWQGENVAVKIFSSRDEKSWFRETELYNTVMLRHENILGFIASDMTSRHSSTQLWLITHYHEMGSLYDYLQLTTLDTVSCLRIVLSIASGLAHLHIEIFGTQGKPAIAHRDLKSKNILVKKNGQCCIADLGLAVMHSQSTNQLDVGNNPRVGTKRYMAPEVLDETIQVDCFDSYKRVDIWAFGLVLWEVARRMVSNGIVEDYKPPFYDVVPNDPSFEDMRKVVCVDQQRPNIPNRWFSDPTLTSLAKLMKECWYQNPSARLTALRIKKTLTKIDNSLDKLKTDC
pIC50 [1],Structure (SMILES),inhibition of ALK2 mutant DIPG cell viability [2]
≥ 9.00,"Cc1cnn(-c2ccc3c(-c4cnc5cc(-c6ccc([C@]78C[C@H]7CN(C7CCOCC7)C8)cc6)c(C)nn45)ccnc3n2)n1 (stereo in doubt) [Example 4, 2-(4-Methyl-2H-1,2,3-triazol-2-yl)-5-(6-methyl-7-(4-((1S,5R)-3-(tetrahydro-2H-pyran-4-yl)-3-azabicyclo[3.1.0]hexan-1-yl)phenyl)imidazo[1,2-b]pyridazin-3-yl)-1,8-naphthyridine]",
≥ 9.00,"CCn1cnc(-c2ccc3c(-c4cnc5cc(-c6ccc([C@@]78C[C@@H]7CN(C7CCOCC7)C8)cc6)c(C)nn45)ccnc3n2)c1 [Example 1, 2-(1-Ethyl-1H-imidazol-4-yl)-5-(6-methyl-7-(4-((1R,5S)-3-(tetrahydro-2H-pyran-4-yl)-3-azabicyclo[3.1.0]hexan-1-yl)phenyl)imidazo[1,2-b]pyridazin-3-yl)-1,8-naphthyridine]",
≥ 9.00,"CCn1cnc(-c2ccc3c(-c4cnc5cc(-c6ccc(CN7CC8CCC7CC8)cc6)c(C)nn45)ccnc3n2)c1 [Example 2, 2-(4-(3-(7-(1-Ethyl-1H-imidazol-4-yl)-1,8-naphthyridin-4-yl)-6-methylimidazo[1,2-b]pyridazin-7-yl)benzyl)-2-azabicyclo[2.2.2]octane]",
≥ 9.00,"Cc1cnn(-c2ccc3c(-c4cnc5cc(-c6ccc(CN7CC8CCC7CC8)cc6)c(C)nn45)ccnc3n2)n1 [Example 3, 2-(4-(6-Methyl-3-(7-(4-methyl-2H-1,2,3-triazol-2-yl)-1,8-naphthyridin-4-yl)imidazo[1,2-b]pyridazin-7-yl)benzyl)-2-azabicyclo[2.2.2]octane]",
,c1ccc2c(-c3cnn4cc(-c5ccc(N6CCNCC6)cc5)cnc34)ccnc2c1 [LDN-19318917],significant inhibition
